Usually AC50 stands for the concentration at which the activity in the assay is half-maximal.

Structures can show the parent of a compound that is named as a salt. Where two headings read alike, the source gives them in different places.

One assay addresses T1, CDK9/cyclin K (Homo sapiens, UniProt P50750).
T1 construct: purchased Invitrogen (ThermoFisher) PV4335
Put plainly: TR-FRET Lanthascreen Eu Kinase Binding assay. The conditions noted are these: for Curve Class: classifies curves by quality of fit, efficacy and number of asymptotes; for Efficacy: difference between highest and lowest activity across concentration range; for Efficacy / Max Resp: in %. The source says: The TR-FRET Lanthascreen Eu Kinase Binding assay for CDK9/cyclin K was purchased from ThermoFisher and performed as per manufacturer instructions.
A general note: Time-resolved FRET reads energy transfer from a long-lived donor to a nearby acceptor.

Another assay deals with T2, CDK9-86b (Homo sapiens, UniProt P50750).
T2 construct: Size (a.a., untagged); expressed in transfected cells; host or cells: HEK293T
The assay is described as follows: SplitLuc CETSA of CDK9-86b. As to conditions: 45 °C for 3.5 min, 96-well PCR plate. The assay is classed as cell-based. How it is done: For CDK9, 2 µg of DNA per well was used. After 24 h (48 h for CDK9), cells were harvested by trypsinization and resuspended at 1 × 10^6 cells/mL (unless otherwise indicated) in CETSA buffer containing DPBS (with CaCl2 and MgCl2) plus 1 g/L glucose, 1X Halt protease inhibitor cocktail (ThermoFisher), and 0.5% DMSO (DMSO was not added for experiments that received subsequent compound and vehicle treatment). For temperature range experiments (without compound or single dose), samples were aliquoted to PCR strips at 30 µL per tube. […] Samples were then heated for 3.5 min using a pre-heated thermal cycler, allowed to equilibrate to room temperature, and 6 µL of 6% NP40 was added to each well. […] 11S (GenScript) and furimazine substrate (from Nano-Glo Luciferase Assay System, Promega) were added, at final concentrations of 100 nM and 0.5X, respectively, and samples were analyzed for luminescence intensity using a ViewLux High-throughput CCD imager (Perkin Elmer) equipped with clear filters.
Cells were transfected and harvested as above (384-well protocol). Cells were dispensed (5 µL cell/well) into 1,536-well white plates (Aurora, cyclic olefin polymer, cat# EWB041000A) using a Multidrop Combi. […] One µL of 6% NP40 was added per well and plates were incubated for 30 min to allow cell lysis followed by addition of 3 µL 11S (final concentration 100 nM) and furimazine substrate. Plates were centrifuged and analyzed for luminescence intensity using a ViewLux reader. For the LDHA and CDK9 screens, a final concentration of 0.5X and 0.25X furimazine was used, respectively. Normalization controls include DMSO and GSK2837808A-treated samples or unheated samples for LDHA and CDK9, respectively. […] Subsequently, 500 pM (final) of 86b was added to the wells, followed by addition of 100 nM 11S and 0.25X furimazine substrate (final).

The mark [1] stands for this setting: concentration at which half maximal activity is observed, 7-point qHTS, read-out: AC50.

T2 sequence (P50750 whole entry): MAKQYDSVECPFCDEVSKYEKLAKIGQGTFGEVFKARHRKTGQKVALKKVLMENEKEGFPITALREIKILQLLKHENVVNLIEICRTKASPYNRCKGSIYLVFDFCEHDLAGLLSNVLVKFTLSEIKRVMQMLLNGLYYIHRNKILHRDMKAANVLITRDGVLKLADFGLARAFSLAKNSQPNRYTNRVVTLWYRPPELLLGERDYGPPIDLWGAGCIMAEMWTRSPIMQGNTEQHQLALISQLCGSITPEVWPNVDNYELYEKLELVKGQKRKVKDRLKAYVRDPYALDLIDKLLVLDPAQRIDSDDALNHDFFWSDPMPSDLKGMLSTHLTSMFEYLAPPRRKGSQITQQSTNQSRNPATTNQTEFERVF
T1 sequence (P50750 whole entry): as above
T1 sequence (O75909 whole entry partner): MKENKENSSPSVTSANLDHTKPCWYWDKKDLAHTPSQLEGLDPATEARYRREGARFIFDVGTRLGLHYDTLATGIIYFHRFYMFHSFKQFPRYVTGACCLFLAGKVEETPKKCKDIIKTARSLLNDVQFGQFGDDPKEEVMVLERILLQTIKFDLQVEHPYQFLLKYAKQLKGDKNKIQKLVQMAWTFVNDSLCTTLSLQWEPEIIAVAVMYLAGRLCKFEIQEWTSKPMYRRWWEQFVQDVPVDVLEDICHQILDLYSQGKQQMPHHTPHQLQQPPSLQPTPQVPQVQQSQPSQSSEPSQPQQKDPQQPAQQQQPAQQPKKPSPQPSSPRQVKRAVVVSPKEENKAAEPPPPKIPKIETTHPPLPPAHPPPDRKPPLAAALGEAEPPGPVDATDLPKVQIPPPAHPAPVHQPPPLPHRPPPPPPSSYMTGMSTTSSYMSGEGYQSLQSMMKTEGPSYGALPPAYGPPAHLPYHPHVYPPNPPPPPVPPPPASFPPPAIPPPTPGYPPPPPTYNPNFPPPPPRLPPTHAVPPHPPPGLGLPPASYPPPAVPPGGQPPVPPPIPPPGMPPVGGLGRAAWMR

Take `COc1cc(F)ccc1-c1ncnc(Nc2cccc(C[S+](C)(=N)[O-])c2)n1` (stereo not shown) [BAY-1143572]: at CDK9/cyclin K, the “Curve Class” value is given as -1.2, the Efficacy is listed as -55.3 and the “Max Resp” value is -100.3. Further, the “stabilization of CDK9-86b in follow-up experiments” value (shortened to “stabilization of CDK9-86b”) on CDK9-86b is reported as “stabilize”.
On to `CC(C)c1cnn2c(NCc3ccccc3)cc(N[C@@H](CO)[C@H](O)CO)nc12` [BS194], for which, on CDK9/cyclin K, the “Curve Class” value is given as -1.1, the Efficacy was -108.2 and the “Max Resp” value is given as -95.8.
Turning to `O=C(O)c1ccc2c(c1)nc(Nc1cccc(Cl)c1)c1ccncc12` [CX-4945 (sodium salt)], on CDK9/cyclin K, the “Curve Class” value was -1.1, the Efficacy was -98.0 and the “Max Resp” value was -93.5.
The matching figures for `CC(C)[C@H](CO)Nc1nc(Nc2cccc(Cl)c2)c2ncn(C(C)C)c2n1` [Purvalanol A]: -1.1, -79.6 and -72.7.
As to `Cc1ccc(C(N)=O)cc1Nc1nccc(-c2cn(C(C)C)c3cnccc23)n1` [NCGC00263020-01], at CDK9/cyclin K, the “Curve Class” value is -1.1, the Efficacy is listed as -90.3 and the “Max Resp” value was -99.8.
The matching figures for `CC(C)n1nc(-c2ccc(NC(=O)Nc3cccc(C(F)(F)F)c3)cc2)c2c(N)ncnc21` [AD57 (hydrochloride)]: -1.1, -86.8 and -79.5.
Take `O=C(O)c1ccc(-c2c[nH]c3ncc(-c4ccccc4)cc23)cc1C1CCCC1` [GSK-650394]: at CDK9/cyclin K, the “Curve Class” value was -1.2, the Efficacy is given as -77.0 and the “Max Resp” value is given as -89.0.
`COCCOc1ccc2c(c1)ncn2-c1ccc2cccc(N3CCC(N)CC3)c2n1` [CP-673451]: at CDK9/cyclin K, the “Curve Class” value is -1.1, the Efficacy was -83.3 and the “Max Resp” value was -91.2. The AC50 at CDK9/cyclin K (setting [1]) came to 150 nM.
Turning to `CC[C@@](C)(Nc1ccnc(-c2c[nH]c3ncccc23)n1)C(=O)NCC(F)(F)F` [VX-509 (Decernotinib)], on CDK9/cyclin K, the “Curve Class” value is -1.1, the Efficacy is reported as -91.7 and the “Max Resp” value is given as -97.1.
Taken in the same sequence, the figures for `CN1CCC(c2c(O)cc(O)c3c(=O)cc(-c4ccccc4Cl)oc23)C1CO` (stereo not shown) [Compound P276-00, P276-00] were -1.2, -60.7 and -99.0.
The matching figures for `COc1ccc(-c2cc3nccn3c(Nc3ncccc3C(N)=O)n2)cc1OC` [BAY 61-3606 (dihydrochloride)]: -1.1, -91.8 and -92.1.
As for `CN1C/C=C/CCOc2cccc(c2)-c2ccnc(n2)Nc2cccc(c2)C1` [SB1317], on CDK9/cyclin K, the “Curve Class” value is on record as 5, the Efficacy is -6.2 and the “Max Resp” value is -95.8. In addition, the “stabilization of CDK9-86b” value at CDK9-86b is on record as “stabilize”.
With `Cc1n[nH]c2ccc(-c3cncc(OC[C@@H](N)Cc4ccccc4)c3)cc12` [Compound A-674563, A-674563], on CDK9/cyclin K, the “Curve Class” value is given as -1.1, the Efficacy was -89.8 and the “Max Resp” value is given as -98.7.
Regarding `CN(C)C/C=C/C(=O)Nc1cccc(C(=O)Nc2ccc(Nc3nccc(-c4cccnc4)n3)cc2)c1` [JNK-IN-7], at CDK9/cyclin K, the “Curve Class” value was -1.1, the Efficacy was -86.0 and the “Max Resp” value is given as -91.6.
The matching figures for `Cc1ccc([N+](=O)[O-])cc1[S+](=O)([O-])N(C)/N=C/c1cnc2ccc(Br)cn12` [NCGC00346500-05, PIK-75]: 5, -24.5 and -95.2.
For `COc1ccc(-c2oc3ncnc(N)c3c2-c2ccc(NC(=O)Nc3cc(C(F)(F)F)ccc3F)cc2)cc1` [GW768505A], on CDK9/cyclin K, the “Curve Class” value is recorded as -1.1, the Efficacy is -85.9 and the “Max Resp” value was -78.2. The AC50 on CDK9/cyclin K (logarithm of AC50, read-out: Log AC50 (converted)) was 631 nM.
Consider `N#CCNC(=O)c1ccc(-c2ccnc(Nc3ccc(N4CCOCC4)cc3)n2)cc1` [CYT-387], for which, at CDK9/cyclin K, the “Curve Class” value is -1.1, the Efficacy is recorded as -85.8 and the “Max Resp” value is on record as -96.7.
The matching figures for `CCS(=O)(=O)c1cccc(-c2cc(C(=O)NC3CCN(C)CC3)c(C)c3[nH]c4ncc(C)cc4c23)c1` [TAK-901]: -1.1, -101.2 and -96.3.
For the compound `Nc1nc(NCCNc2ncc(-n3ccnc3)c(-c3ccc(Cl)cc3Cl)n2)ccc1[N+](=O)[O-]` [CHIR98014], the half-maximal activity concentration (AC50) on CDK9/cyclin K (AC50, concentration at which half maximal activity is observed, 7-point qHTS) was found to be 134 nM. Further, on CDK9/cyclin K, the “Curve Class” value is on record as -1.1, the Efficacy is recorded as -87.0 and the “Max Resp” value is listed as -80.6.
In the case of `CN[C@H]1CCN(C(=O)c2ccc(Nc3ncc(F)c(-c4cnc(C)n4C(C)C)n3)cc2)C1` [AZD-5597], at CDK9/cyclin K, the “Curve Class” value was -1.3, the Efficacy was -51.7 and the “Max Resp” value was -96.5.
In the case of `Nc1nc(Nc2ccc(S(N)(=O)=O)cc2)nn1C(=O)c1c(F)cccc1F` [JNJ7706621], on CDK9/cyclin K, the “Curve Class” value is given as -1.1, the Efficacy is listed as -93.4 and the “Max Resp” value is on record as -97.5.
Taken in the same sequence, the figures for `Nc1n[nH]c(N)c1N=Nc1ccc(O)cc1` (stereo in doubt) [CAY10574] were -1.1, -84.6 and -95.5.
Consider `COc1ccc(F)cc1-c1cc(NC(=O)[C@@H]2CCCNC2)ncc1Cl` [CDK-IN-2], for which, at CDK9/cyclin K, the “Curve Class” value came to 5, the Efficacy was 0.0 and the “Max Resp” value is on record as -98.0. Also, the “stabilization of CDK9-86b” value at CDK9-86b is given as “stabilize”.
For `CCCCNc1ncc(C(=O)NCc2ccc(-n3ccnc3)cc2)c(NC2CCC(O)CC2)n1` (stereo in doubt) [UNC2881], at CDK9/cyclin K, the “Curve Class” value is listed as -1.1, the Efficacy is listed as -93.2 and the “Max Resp” value is reported as -99.2.
On to `Cc1cc(Nc2cc(NC(=O)c3c(Cl)cccc3Cl)ccn2)nc(N)n1` [RO495], for which, on CDK9/cyclin K, the “Curve Class” value is listed as -1.1, the Efficacy is -93.8 and the “Max Resp” value is -99.1.
On to `Nc1ncnc2c1c(I)cn2[C@@H]1O[C@H](CO)[C@H](O)C1O` (stereo partly shown) [5-Iodotubercidin], for which, on CDK9/cyclin K, the “Curve Class” value was -1.1, the Efficacy is reported as -92.5 and the “Max Resp” value is listed as -99.1.
Consider `C1=C/COCc2cc(ccc2OCCN2CCCC2)Nc2nccc(n2)-c2cccc(c2)COC/1` [Pacritinib], for which, at CDK9/cyclin K, the “Curve Class” value is listed as -1.2, the Efficacy is -64.6 and the “Max Resp” value is reported as -95.3.
Take `COc1ccc(CNc2nc(N(CCO)CCO)nc3c2ncn3C(C)C)cc1` [CVT-313]: at CDK9/cyclin K, the “Curve Class” value was -1.1, the Efficacy was -101.1 and the “Max Resp” value is on record as -99.9. Also, the AC50 on CDK9/cyclin K (setting [1]) was determined as 532 nM.

(Values after article PMC6013488, “A widely-applicable high-throughput cellular thermal shift assay (CETSA) using split Nano Luciferase” (Scientific Reports, 2018).)
